Experimental findings from patent US11395847B2, “Acylated GLP-1/GLP-2 dual agonists” (Zealand Pharma A/S, priority 2016, dated 2022) are described below.

What is called EC50 is the concentration that produces a half-maximal response. One may read the solubility as the concentration that dissolves in the medium under given conditions.

Data set [1] has as its system Normal chow-fed C57BL/6J male mice. In words: Effect on fasting glucose and intestinal weight in normal mice. Format: in vivo. Conditions: for Small intestinal wet weight: 100 nmol/kg s.c. once daily for 4 days, sacrificed 24 hours after final dosing; for Fasting blood glucose: 100 nmol/kg s.c., day 0 after a single injection, fasted mice. As for the experimental part: Normal chow-fed C57BL/6J male mice were used. The mice were kept in standard housing conditions, light-, temperature-, and humidity-controlled room (12:12 h light-dark cycle, with lights on at 06.00-18.00 h; 20-22° C.; 50-80% relative humidity). Each dosing group consisted of 6 animals. Mice were dosed once daily with 100 nmol/kg with the test compounds or vehicle for 4 days via subcutaneous administration.
On day 0 mice were fasted and blood glucose levels measured after a single s.c. injection with peptides. Animals were sacrificed 24 hours after final dosing on day 3, and small intestinal wet weights were measured.

Data set [2] can be described thus: Chemical stability (RP-HPLC normalized purity after incubation at 40° C.). Type of data set: physicochemical. The following applies: 14-day incubation, 0.2 mg/ml, normalized purity (area-%); for pH 6 normalized stability: pH 6, 40° C.; for pH 7 normalized stability: pH 7, 40° C. In outline: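 Peptide at 0.2 mg/ml final in water adjusted to pH 6, 7, 7.5 or 9, incubated at 40° C for 14 days. Purity measured as main-peak area-% by C18 RP-HPLC (acetonitrile/TFA/water gradient, UV 220 nm) and normalized to T=0 set at 100 for each pH.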

A further data set deals with T1, human GLP-2 receptor (Homo sapiens, UniProt O95838, D470N).
T1 construct: expressed in transfected cells
T1 sequence (O95838 1-553 D470N): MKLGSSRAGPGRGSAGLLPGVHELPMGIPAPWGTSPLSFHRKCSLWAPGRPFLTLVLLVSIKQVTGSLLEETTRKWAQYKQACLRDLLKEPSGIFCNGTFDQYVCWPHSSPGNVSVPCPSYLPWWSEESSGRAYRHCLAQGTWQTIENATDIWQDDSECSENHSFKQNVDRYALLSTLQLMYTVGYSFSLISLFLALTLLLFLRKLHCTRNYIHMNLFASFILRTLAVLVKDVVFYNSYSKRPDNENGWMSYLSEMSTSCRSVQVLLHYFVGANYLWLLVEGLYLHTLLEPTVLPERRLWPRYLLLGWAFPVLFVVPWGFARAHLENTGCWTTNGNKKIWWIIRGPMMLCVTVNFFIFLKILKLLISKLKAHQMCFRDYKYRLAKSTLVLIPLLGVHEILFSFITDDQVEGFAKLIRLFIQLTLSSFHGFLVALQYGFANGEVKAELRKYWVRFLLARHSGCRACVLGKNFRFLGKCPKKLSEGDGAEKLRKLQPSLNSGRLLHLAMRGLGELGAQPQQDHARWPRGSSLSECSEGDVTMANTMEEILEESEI
As to the kind of experiment: GLP-2 receptor potency assay (cAMP ALPHASCREEN, HEK293 cells stably expressing GLP-2 R). Type of data set: cell-based. The following applies: cAMP response, HEK293 cells expressing human GLP-2 R; read-out: EC50 GLP-2. The method, boiled down:
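HEK293 clones stably transfected with the human GLP-2 receptor, selected with G418, were used. Intracellular cAMP was quantified by AlphaScreen. Responses were normalised to positive and vehicle controls, and EC50 and maximal response were taken from concentration-response curves.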
For orientation: Bead proximity is the source of the signal in Alpha formats.

The nature of data set [3]: Solubility assessment (turbidity absorbance at 325 nm). Type of data set: physicochemical. The method, boiled down: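 Peptide stock at 2 mg/ml in water at pH 2.5 diluted 1:1 into 100 mM acetate (pH 4.0, 5.0), histidine (pH 6.0, 7.0) or phosphate (pH 6.0, 7.0, 7.5) buffer. Absorbance at 280 and 325 nm read at ambient temperature (typically 25 °C), single samples (n=1).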

A further data set concerns the target T2, human GLP-1 receptor (Homo sapiens, UniProt P43220).
T2 construct: expressed in transfected cells
As to the kind of experiment: GLP-1 receptor potency assay (cAMP ALPHASCREEN, HEK293 cells stably expressing GLP-1 R). Format: cell-based. Conditions: cAMP response, HEK293 cells expressing human GLP-1 R. The method, boiled down:
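Clonal HEK293 line stably transfected with human GLP-1R (G418-selected) was treated with test compounds and the cAMP response quantified by ALPHASCREEN. Signals were normalized to positive control and vehicle, with EC50 and maximal response taken from concentration-response curves.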

Read-outs that look alike come from different tables or passages of the source. Where a SMILES comes first, the peptide text is derived from it.

T2 sequence (P43220 24-463): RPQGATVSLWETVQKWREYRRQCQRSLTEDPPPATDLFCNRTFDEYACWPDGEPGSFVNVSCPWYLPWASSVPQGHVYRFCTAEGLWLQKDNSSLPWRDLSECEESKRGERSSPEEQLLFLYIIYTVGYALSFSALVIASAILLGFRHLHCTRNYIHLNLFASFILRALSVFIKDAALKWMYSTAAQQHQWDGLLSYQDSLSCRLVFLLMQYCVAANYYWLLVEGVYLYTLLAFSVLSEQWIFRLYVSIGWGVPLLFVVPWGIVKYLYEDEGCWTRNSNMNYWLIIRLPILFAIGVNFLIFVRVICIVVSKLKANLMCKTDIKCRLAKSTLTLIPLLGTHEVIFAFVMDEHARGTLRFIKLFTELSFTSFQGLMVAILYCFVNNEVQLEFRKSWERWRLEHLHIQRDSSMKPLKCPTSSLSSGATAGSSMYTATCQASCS

As for `CC[C@H](C)[C@H](NC(=O)[C@H](Cc1ccccc1)NC(=O)[C@H](CC(=O)O)NC(=O)[C@H](CCCNC(=N)N)NC(=O)[C@H](C)NC(=O)[C@H](C)NC(=O)[C@H](CCCCNC(=O)CC[C@H](NC(=O)CCCCCCCCCCCCCCCCC(=O)O)C(=O)O)NC(=O)CNC(=O)[C@H](CC(=O)O)NC(=O)[C@H](CC(C)C)NC(=O)[C@@H](NC(=O)[C@@H](NC(=O)[C@H](C)NC(=O)[C@H](CC(C)C)NC(=O)[C@H](CCC(=O)O)NC(=O)[C@H](CO)NC(=O)[C@@H](NC(=O)[C@H](Cc1ccccc1)NC(=O)[C@H](CO)NC(=O)CNC(=O)[C@H](CCC(=O)O)NC(=O)C(C)(C)NC(=O)[C@@H](N)Cc1c[nH]cn1)[C@@H](C)O)[C@@H](C)O)[C@@H](C)CC)C(=O)N[C@@H](C)C(=O)N[C@@H](Cc1c[nH]c2ccccc12)C(=O)N[C@@H](CC(C)C)C(=O)N[C@H](C(=O)N[C@@H](CCC(=O)O)C(=O)N[C@@H](Cc1c[nH]cn1)C(=O)N[C@@H](CCCCN)C(=O)N[C@H](C(=O)N[C@H](C(=O)N[C@@H](CC(=O)O)C(=O)O)[C@@H](C)O)[C@@H](C)CC)[C@@H](C)CC` [Compound 8] (HELM PEPTIDE1{H.[Aib].E.G.S.F.T.S.E.L.A.T.I.L.D.G.K.A.A.R.D.F.I.A.W.L.I.E.H.K.I.T.D}|PEPTIDE2{[O=C(O)CCCCCCCCCCCCCCCCC(=O)[*:2]].[gGlu]}$PEPTIDE1,PEPTIDE2,17:R3-2:R2$$$V2.0), in data set [1], the “Small intestinal wet weight” value came to 1.27 g and the Fasting blood glucose was 5.28 mM.

Consider `CC[C@H](C)[C@H](NC(=O)[C@H](Cc1ccccc1)NC(=O)[C@H](CC(=O)O)NC(=O)[C@H](CCCNC(=N)N)NC(=O)[C@H](C)NC(=O)[C@H](C)NC(=O)[C@H](CCCCN)NC(=O)[C@H](CCCCNC(=O)CC[C@H](NC(=O)CCCCCCCCCCCCCCCCC(=O)O)C(=O)O)NC(=O)[C@H](CC(=O)O)NC(=O)[C@H](CC(C)C)NC(=O)[C@@H](NC(=O)[C@@H](NC(=O)[C@H](C)NC(=O)[C@H](CC(C)C)NC(=O)[C@H](CCC(=O)O)NC(=O)[C@H](CO)NC(=O)[C@@H](NC(=O)[C@H](Cc1ccccc1)NC(=O)[C@H](CO)NC(=O)CNC(=O)[C@H](CCC(=O)O)NC(=O)C(C)(C)NC(=O)[C@@H](N)Cc1c[nH]cn1)[C@@H](C)O)[C@@H](C)O)[C@@H](C)CC)C(=O)N[C@@H](C)C(=O)N[C@@H](Cc1c[nH]c2ccccc12)C(=O)N[C@@H](CC(C)C)C(=O)N[C@H](C(=O)N[C@@H](CCC(=O)O)C(=O)N[C@@H](Cc1c[nH]cn1)C(=O)N[C@@H](CCCCN)C(=O)N[C@H](C(=O)N[C@H](C(=O)N[C@@H](CC(=O)O)C(=O)O)[C@@H](C)O)[C@@H](C)CC)[C@@H](C)CC` [Compound 5] (HELM PEPTIDE1{H.[Aib].E.G.S.F.T.S.E.L.A.T.I.L.D.K.K.A.A.R.D.F.I.A.W.L.I.E.H.K.I.T.D}|PEPTIDE2{[O=C(O)CCCCCCCCCCCCCCCCC(=O)[*:2]].[gGlu]}$PEPTIDE1,PEPTIDE2,16:R3-2:R2$$$V2.0), for which, in data set [2], the “pH 6 normalized stability” value is given as “A (>90% normalised stability)” and the “pH 7 normalized stability” value is reported as “A (>90% normalised stability)”. In addition, in data set [1], the “Small intestinal wet weight” value was determined as 1.35 g and the Fasting blood glucose is reported as 4.60 mM.

As to `CC[C@H](C)[C@H](NC(=O)[C@H](Cc1ccccc1)NC(=O)[C@H](CC(=O)O)NC(=O)[C@H](CCCNC(=N)N)NC(=O)[C@H](C)NC(=O)[C@H](C)NC(=O)[C@H](CCC(N)=O)NC(=O)[C@H](CCCCNC(=O)COCCOCCNC(=O)[C@H](CCCCN)NC(=O)[C@H](CCC(=O)O)NC(=O)[C@H](CCCCN)NC(=O)CC[C@H](NC(=O)CCCCCCCCCCCCCCCCCCC(=O)O)C(=O)O)NC(=O)[C@H](CC(=O)O)NC(=O)[C@H](CC(C)C)NC(=O)[C@@H](NC(=O)[C@@H](NC(=O)[C@H](C)NC(=O)[C@H](CC(C)C)NC(=O)[C@H](CCC(=O)O)NC(=O)[C@H](CO)NC(=O)[C@H](CO)NC(=O)[C@H](Cc1ccccc1)NC(=O)[C@@H](NC(=O)CNC(=O)[C@H](CCC(=O)O)NC(=O)C(C)(C)NC(=O)[C@@H](N)Cc1c[nH]cn1)[C@@H](C)O)[C@@H](C)O)[C@@H](C)CC)C(=O)N[C@@H](C)C(=O)N[C@@H](Cc1c[nH]c2ccccc12)C(=O)N[C@@H](CC(C)C)C(=O)N[C@H](C(=O)N[C@@H](CCC(N)=O)C(=O)N[C@@H](Cc1c[nH]cn1)C(=O)N[C@@H](CCCCN)C(=O)N[C@H](C(=O)N[C@H](C(=O)N[C@@H](CC(=O)O)C(=O)O)[C@@H](C)O)[C@@H](C)CC)[C@@H](C)CC` [Compound 48] (HELM PEPTIDE1{H.[Aib].E.G.T.F.S.S.E.L.A.T.I.L.D.K.Q.A.A.R.D.F.I.A.W.L.I.Q.H.K.I.T.D}|PEPTIDE2{[O=C(O)CCCCCCCCCCCCCCCCCCC(=O)[*:2]].[gGlu].K.E.K.[O=C(COCCOCCN[*:1])[*:2]]}$PEPTIDE1,PEPTIDE2,16:R3-6:R2$$$V2.0), in data set [1], the “Small intestinal wet weight” value was determined as 1.41 g and the Fasting blood glucose is recorded as 5.08 mM.

With `CC[C@H](C)[C@H](NC(=O)[C@H](CC(C)C)NC(=O)[C@H](Cc1c[nH]c2ccccc12)NC(=O)[C@H](C)NC(=O)[C@@H](NC(=O)[C@H](Cc1ccccc1)NC(=O)[C@H](CC(=O)O)NC(=O)[C@H](CCCNC(=N)N)NC(=O)[C@H](C)NC(=O)[C@H](C)NC(=O)[C@H](CCC(N)=O)NC(=O)[C@H](CCCCNC(=O)CC[C@H](NC(=O)CCCCCCCCCCCCCCCCC(=O)O)C(=O)O)NC(=O)[C@H](CC(=O)O)NC(=O)[C@H](CC(C)C)NC(=O)[C@@H](NC(=O)[C@@H](NC(=O)[C@H](C)NC(=O)[C@H](CC(C)C)NC(=O)[C@H](CCC(=O)O)NC(=O)[C@H](CO)NC(=O)[C@@H](NC(=O)[C@H](Cc1ccccc1)NC(=O)[C@@H](NC(=O)CNC(=O)[C@H](CCC(=O)O)NC(=O)C(C)(C)NC(=O)[C@@H](N)Cc1c[nH]cn1)[C@@H](C)O)[C@@H](C)O)[C@@H](C)O)[C@@H](C)CC)[C@@H](C)CC)C(=O)N[C@@H](C)C(=O)N[C@@H](Cc1c[nH]cn1)C(=O)N[C@@H](CCCCN)C(=O)N[C@H](C(=O)N[C@H](C(=O)N[C@@H](CC(=O)O)C(=O)O)[C@@H](C)O)[C@@H](C)CC` [Compound 23] (HELM PEPTIDE1{H.[Aib].E.G.T.F.T.S.E.L.A.T.I.L.D.K.Q.A.A.R.D.F.I.A.W.L.I.A.H.K.I.T.D}|PEPTIDE2{[O=C(O)CCCCCCCCCCCCCCCCC(=O)[*:2]].[gGlu]}$PEPTIDE1,PEPTIDE2,16:R3-2:R2$$$V2.0), in data set [2], the “pH 6 normalized stability” value is given as “A (>90% normalised stability)”. The “pH 7 normalized stability” value in data set [2] is “B (>80% stability)”. In addition, the EC50 on human GLP-2 receptor stood at 0.24 nM; on human GLP-1 receptor, 0.13 nM. Also, the solubility in data set [3] (100 mM acetate buffer pH 4.0, ambient temperature, read-out: Solubility Acetate buffer pH 4) was < 1000 µg/mL; in data set [3] (100 mM acetate buffer pH 5.0, ambient temperature, read-out: Solubility Acetate buffer pH 5), < 1000 µg/mL; in data set [3] (100 mM histidine buffer pH 6.0, ambient temperature, read-out: Solubility Histidine buffer pH 6) it was ≥ 1000 µg/mL; in data set [3] (100 mM histidine buffer pH 7.0, ambient temperature, read-out: Solubility Histidine buffer pH 7) it was ≥ 1000 µg/mL; in data set [3] (100 mM phosphate buffer pH 6.0, ambient temperature, read-out: Solubility Phosphate buffer pH 6), ≥ 1000 µg/mL; in data set [3] (100 mM phosphate buffer pH 7.0, ambient temperature, read-out: Solubility Phosphate buffer pH 7), ≥ 1000 µg/mL. The solubility in data set [3] (100 mM phosphate buffer pH 7.5, ambient temperature, read-out: Solubility Phosphate buffer pH 7.5) is ≥ 1000 µg/mL.
